Test results: patent US8143261B2, “Thiazolo (4,5-D) pyrimidine compounds” (AstraZeneca AB, priority 1999, dated 2012)

SMILES	melting point
O=c1[nH]c2nc(SCc3cccc(F)c3F)nc(NCCO)c2s1 [Example 9, 5-[[(2,3-difluorophenyl)methyl]thio]-7-[(2-hydroxyethyl)amino]thiazolo[4,5-d]pyrimidin-2(3H)-one]	217 to 219 °C
C[C@H](CN)Nc1nc(SCc2cccc(Cl)c2F)nc2[nH]c(=O)sc12 [Example 25, 7-[[(1R)-2-Amino-1-methylethyl]amino]-5-[[(3-chloro-2-fluorophenyl)methyl]thio]thiazolo[4,5-d]pyrimidin-2(3H)-one]	241 to 243 °C
CS(=O)(=O)NCCNc1nc(SCc2cccc(F)c2F)nc2[nH]c(=O)sc12 [Example 10, N-[2-[[5-[[(2,3-difluorophenyl)methyl]thio]-2,3-dihydro-2-oxothiazolo[4,5-d]pyrimidin-7-yl]amino]ethyl]methanesulfonamide]	225 to 226 °C
CC(C)(CO)Nc1nc(SCc2ccccc2)nc2[nH]c(=O)sc12 [Example 1, 7-[(2-Hydroxy-1,1-dimethylethyl)amino]-5-[(phenylmethyl)thio]thiazolo[4,5-d]pyrimidin-2(3H)-one]	207 to 208 °C
CC(COCCO)Nc1nc(SCc2cccc(F)c2F)nc2[nH]c(=O)sc12 (racemic) [Example 11, (+/−)-5-[[(2,3-difluorophenyl)methyl]thio]-7-[[2-(2-hydroxyethoxy)-1-methylethyl]amino]thiazolo[4,5-d]pyrimidin-2(3H)-one]	221 to 222 °C
NC(=O)[C@H](CO)Nc1nc(SCc2cccc(F)c2F)nc2[nH]c(=O)sc12 [Example 26, (2S)-2-[[5-[[(2,3-Difluorophenyl)methyl]thio]-2,3-dihydro-2-oxothiazolo[4,5-d]pyrimidin-7-yl]amino]-3-hydroxy-propanamide]	145 to 151 °C
O=c1[nH]c2nc(SCc3cccc(F)c3F)nc(N[C@@H]3CNC[C@H]3O)c2s1 [Example 18, 5-[[(2,3-Difluorophenyl)methyl]thio]-7-[[(3R,4R)-4-hydroxypyrrolidin-3-yl]amino]-thiazolo[4,5-d]pyrimidin-2(3H)-one]	270 °C (dec.)
Cc1nc(CSc2nc(NC(CO)CO)c3sc(=O)[nH]c3n2)cs1 [Example 21, 7-[[2-Hydroxy-1-(hydroxymethyl)ethyl]amino]-5-[[(2-methyl-4-thiazolyl)methyl]thio]thiazolo[4,5-d]pyrimidin-2(3H)-one]	239 to 243 °C
NCCNc1nc(SCc2cccc(F)c2F)nc2[nH]c(=O)sc12 [Example 8, 7-[(2-aminoethyl)amino]-5-[[(2,3-difluorophenyl)methyl]thio]thiazolo[4,5-d]pyrimidin-2(3H)-one]	215 to 216 °C
COCC(CO)Nc1nc(SCc2cccc(F)c2F)nc2[nH]c(=O)sc12.[Na] (racemic)	> 250 °C
Cc1nc(CSc2nc(NC(C)(C)CO)c3sc(=O)[nH]c3n2)cs1 [Example 22, 7-[(2-Hydroxy-1,1-dimethylethyl)amino]-5-[[(2-methyl-4-thiazolyl)methyl]thio]thiazolo[4,5-d]pyrimidin-2(3H)-one]	231 to 232 °C
O=c1[nH]c2nc(SCc3cccc(F)c3F)nc(NC(CO)CO)c2s1 [Example 7, 5-[[(2,3-difluorophenyl)methyl]thio]-7-[[2-hydroxy-1-(hydroxymethyl)ethyl]amino]thiazolo[4,5-d]pyrimidin-2(3H)-one]	178 to 179 °C
